This note sets out measurements from US8022091B2, “Triazole derivative” (Taisho Pharmaceutical Co., Ltd., priority 2006, dated 2011).

T1 sequence (P21453 whole entry): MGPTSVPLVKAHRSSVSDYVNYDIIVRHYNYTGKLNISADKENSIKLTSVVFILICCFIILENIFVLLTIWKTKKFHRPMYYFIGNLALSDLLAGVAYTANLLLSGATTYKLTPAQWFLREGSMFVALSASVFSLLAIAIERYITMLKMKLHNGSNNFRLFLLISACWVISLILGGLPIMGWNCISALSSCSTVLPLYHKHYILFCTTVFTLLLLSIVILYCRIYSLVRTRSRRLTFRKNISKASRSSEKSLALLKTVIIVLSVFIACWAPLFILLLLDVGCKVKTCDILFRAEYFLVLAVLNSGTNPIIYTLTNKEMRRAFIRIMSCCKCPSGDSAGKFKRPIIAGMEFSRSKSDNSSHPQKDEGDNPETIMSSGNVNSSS

The first assay concerns the target T1, human Edg-1 (S1P1) (Homo sapiens, UniProt P21453).
T1 construct: expressed in transfected cells; host or cells: HEK-293
Description: S1P1 binding assay: inhibition of [33P]-S1P binding to membrane fraction of HEK-293 cells transferred with the human Edg-1 (S1P1) gene. The conditions noted are these: test compound 10 μM; inhibition of [33P]-S1P binding, membrane fraction. An outline of the steps:
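Membranes from S1P1-transfected HEK-293 cells incubated 1 h at 30° C in pH 7.4 Tris buffer with fatty acid-free BSA, 0.1 nM [33P]-S1P and test compound (0.1% DMSO). Filter-bound radioactivity was counted; inhibition corrected for binding to untransfected-cell membranes, and IC50 derived from concentration series.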
With `CCn1c(Oc2cccc(N3CCN(C)CC3)c2)nnc1[C@@H](C)NS(=O)(=O)c1ccc2c(c1)OCCO2` [Compound 630], the inhibition at 10 µM worked out at 107%.

For `CCn1c(Oc2cccc(N3CCN(C)CC3)c2)nnc1[C@@H](C)NS(=O)(=O)c1ccc2c(c1)CCN2C(C)=O` [Compound 677], the inhibition at 10 µM is 60.8%.

With `CCn1c(Oc2cccc(N3CCN(C)CC3)c2)nnc1[C@@H](C)NS(=O)(=O)c1ccccc1` [Compound 498], the inhibition at 10 µM was determined as 84%.

As to `CCn1c(Oc2cccc(N3CCN(C)CC3)c2)nnc1[C@@H](C)NS(=O)(=O)c1cc(Cl)ccc1F` [Compound 614], the inhibition at 10 µM came out at 77.8%.

With `CCn1c(Oc2cccc(N3CCN(C)CC3)c2)nnc1[C@@H](C)NS(=O)(=O)c1c(F)c(F)c(F)c(F)c1F` [Compound 524], the inhibition at 10 µM was found to be 83%.

As to `CCn1c(Oc2cccc(N3CCN(C)CC3)c2)nnc1[C@@H](C)NS(=O)(=O)c1ccc2c(c1)OCO2` [Compound 675], the inhibition at 10 µM turned out to be 96.6%.

Regarding `CCn1c(Oc2ccc3cc[nH]c3c2)nnc1[C@@H](C)NS(=O)(=O)c1cc2ccccc2s1` [Compound 493], the inhibition at 10 µM stood at 83.1%.

Take `CCn1c(Oc2cccc(N3CCN(C)CC3)c2)nnc1[C@@H](C)NS(=O)(=O)c1ccccc1F` [Compound 571]: the inhibition at 10 µM was determined as 55.7%.

Take `CCn1c(Oc2cccc(N3CCN(C)CC3)c2)nnc1[C@@H](C)NS(=O)(=O)c1ccc(C)cc1` [Compound 528]: the inhibition at 10 µM turned out to be 106%.

Take `CCn1c(Oc2cccc(N3CCN(C)CC3)c2)nnc1[C@@H](C)NS(=O)(=O)c1ccc(F)c(C#N)c1` [Compound 601]: the inhibition at 10 µM amounted to 100%.

In the case of `CCOc1ccc(NC(C)=O)cc1S(=O)(=O)N[C@H](C)c1nnc(Oc2cccc(N3CCN(C)CC3)c2)n1CC` [Compound 649], the inhibition at 10 µM was 64.7%.

As to `CCc1cc(Br)ccc1S(=O)(=O)N[C@H](C)c1nnc(Oc2ccc3cc[nH]c3c2)n1CC` [Compound 406], the inhibition at 10 µM amounted to 56.3%.

Turning to `CCn1c(Oc2cccc(N3CCN(C)CC3)c2)nnc1[C@@H](C)NS(=O)(=O)c1cccc2nonc12` [Compound 634], the inhibition at 10 µM came out at 51%.

As to `CCn1c(Oc2cccc(N3CCN(C)CC3)c2)nnc1[C@@H](C)NS(=O)(=O)c1ccc(I)cc1` [Compound 525], the inhibition at 10 µM worked out at 111%.

`CCn1c(Oc2cccc(N3CCN(C)CC3)c2)nnc1[C@@H](C)NS(=O)(=O)c1ccc(C)c(F)c1` [Compound 612]: the inhibition at 10 µM is 114%.

Consider `CCn1c(Oc2cccc(N3CCN(C)CC3)c2)nnc1[C@@H](C)NS(=O)(=O)c1cc(C)cc(C)c1` [Compound 602], for which the inhibition at 10 µM came to 107%.

`CCn1c(Oc2cccc(N3CCN(C)CC3)c2)nnc1[C@@H](C)NS(=O)(=O)c1ccccc1C` [Compound 531]: the inhibition at 10 µM was 100%.

As to `CCn1c(Oc2ccc3cc[nH]c3c2)nnc1[C@@H](C)NS(=O)(=O)c1cc(F)c(F)c(F)c1` [Compound 439], the inhibition at 10 µM was 98.1%.

For the compound `CCn1c(Oc2ccc3cc[nH]c3c2)nnc1[C@@H](C)NS(=O)(=O)c1ccc2nsnc2c1` [Compound 464], the inhibition at 10 µM was 87.9%.

Regarding `CCn1c(Oc2cccc(N3CCN(C)CC3)c2)nnc1[C@@H](C)NS(=O)(=O)c1cc(Br)ccc1OC` [Compound 559], the inhibition at 10 µM was 79.3%.

As to `CCn1c(Oc2cccc(N3CCN(C)CC3)c2)nnc1[C@@H](C)NS(=O)(=O)c1ccc(C(C)C)cc1` [Compound 573], the inhibition at 10 µM is 86.3%.

Turning to `CCn1c(Oc2ccc3cc[nH]c3c2)nnc1[C@@H](C)NS(=O)(=O)c1cc(Br)ccc1Br` [Compound 428], the inhibition at 10 µM stood at 81.4%.

`CCn1c(Oc2cccc(N3CCN(C)CC3)c2)nnc1[C@@H](C)NS(=O)(=O)c1cc(C(F)(F)F)ccc1Br` [Compound 611]: the inhibition at 10 µM was determined as 63.9%.

As for `CCn1c(Oc2cccc(N3CCN(C)CC3)c2)nnc1[C@@H](C)NS(=O)(=O)c1ccsc1` [Compound 635], the inhibition at 10 µM was 68.7%.

Consider `CCn1c(Oc2cccc(N3CCN(C)CC3)c2)nnc1[C@@H](C)NS(=O)(=O)c1ccc(F)cc1C` [Compound 613], for which the inhibition at 10 µM came out at 90.9%.

Regarding `CCn1c(Oc2cccc(N3CCN(C)CC3)c2)nnc1[C@@H](C)NS(=O)(=O)c1ccc(Br)c(F)c1` [Compound 615], the inhibition at 10 µM is 110%.

Regarding `CCn1c(Oc2cccc(N3CCN(C)CC3)c2)nnc1[C@@H](C)NS(=O)(=O)c1ccc(Cl)cc1` [Compound 505], the inhibition at 10 µM worked out at 108%.

Take `CCn1c(Oc2cccc(N3CCN(C)CC3)c2)nnc1[C@@H](C)NS(=O)(=O)c1cccc(Cl)c1` [Compound 572]: the inhibition at 10 µM was 96.5%.

Regarding `CCn1c(Oc2cccc(N3CCN(C)CC3)c2)nnc1[C@@H](C)NS(=O)(=O)c1ccc(NC(C)=O)c(Cl)c1` [Compound 593], the inhibition at 10 µM is 65.9%.

Take `CCn1c(Oc2cccc(N3CCN(C)CC3)c2)nnc1[C@@H](C)NS(=O)(=O)c1cc(F)c(Cl)cc1F` [Compound 583]: the inhibition at 10 µM was 109%.

Consider `CCn1c(Oc2ccc3cc[nH]c3c2)nnc1[C@@H](C)NS(=O)(=O)c1cc(C(F)(F)F)ccc1Br` [Compound 443], for which the inhibition at 10 µM was found to be 55.7%.

In the case of `CCn1c(Oc2cccc(N3CCN(C)CC3)c2)nnc1[C@@H](C)NS(=O)(=O)c1ccc(F)cc1` [Compound 516], the inhibition at 10 µM was 107%.

As to `CCn1c(Oc2cccc(N3CCN(C)CC3)c2)nnc1[C@@H](C)NS(=O)(=O)c1cc(Cl)ccc1Cl` [Compound 511], the inhibition at 10 µM came to 98.6%.

On to `CCn1c(Oc2ccc3cc[nH]c3c2)nnc1[C@@H](C)NS(=O)(=O)CC1CCCCC1` [Compound 458], for which the inhibition at 10 µM is 83.8%.

The assay is the same for the next values; noted with them: test compound at 10 μM; inhibition of [33P]-S1P binding to the membrane fraction of HEK-293 cells expressing human Edg-1 (S1P1).
As to `CCn1c(Oc2ccc(F)cc2)nnc1[C@@H](C)NS(=O)(=O)c1cc(F)cc(Cl)c1C` [Compound 233], the inhibition at 10 µM amounted to 87.1%.

Regarding `CCn1c(Oc2ccc3cc[nH]c3c2)nnc1[C@@H](C)NS(=O)(=O)c1cccc(C)c1` [Compound 364], the inhibition at 10 µM turned out to be 87.5%.

As for `CCn1c(Oc2ccc(F)cc2)nnc1[C@@H](C)NS(=O)(=O)c1cccc2ccccc12` [Compound 179], the inhibition at 10 µM was 83%.

On to `CCn1c(Oc2ccc(F)cc2)nnc1[C@@H](C)NS(=O)(=O)c1ccc(F)cc1C` [Compound 273], for which the inhibition at 10 µM was found to be 71.6%.

In the case of `CCn1c(Oc2ccc3cc[nH]c3c2)nnc1[C@@H](C)NS(=O)(=O)c1ccc(F)c(Cl)c1` [Compound 385], the inhibition at 10 µM stood at 98%.

Take `CCn1c(Oc2ccc3cc[nH]c3c2)nnc1[C@@H](C)NS(=O)(=O)c1ccc(OC)cc1` [Compound 348]: the inhibition at 10 µM was 109%.

Regarding `CCn1c(Oc2ccc(F)cc2)nnc1[C@@H](C)NS(=O)(=O)c1ccc(Cl)cc1F` [Compound 267], the inhibition at 10 µM came out at 89.6%.

On to `CCn1c(Oc2ccc(F)cc2)nnc1[C@@H](C)NS(=O)(=O)c1cc(Br)cc(C(F)(F)F)c1` [Compound 319], for which the inhibition at 10 µM turned out to be 61.7%.

Regarding `CCn1c(Oc2ccc(F)cc2)nnc1[C@@H](C)NS(=O)(=O)c1cc(C(F)(F)F)ccc1Br` [Compound 271], the inhibition at 10 µM came out at 57.1%.

Regarding `CCn1c(Oc2ccc(F)cc2)nnc1[C@@H](C)NS(=O)(=O)c1ccc(C(C)(C)C)cc1` [Compound 157], the inhibition at 10 µM was determined as 74.6%.

Take `CCn1c(Oc2ccc(F)cc2)nnc1[C@@H](C)NS(=O)(=O)c1cc(Cl)c(Cl)cc1Cl` [Compound 184]: the inhibition at 10 µM was found to be 97.3%.

Turning to `CCn1c(Oc2ccc(F)cc2)nnc1[C@@H](C)NS(=O)(=O)c1ccc(-c2ccno2)s1` [Compound 258], the inhibition at 10 µM came out at 67.9%.

On to `CCn1c(Oc2ccc(F)cc2)nnc1[C@@H](C)NS(=O)(=O)CCc1cccc2ccccc12` [Compound 180], for which the inhibition at 10 µM came to 94.6%.

On to `CCn1c(Oc2ccc(F)cc2)nnc1[C@@H](C)NS(=O)(=O)c1cccc(Br)c1` [Compound 160], for which the inhibition at 10 µM was 96.9%.

Consider `CCn1c(Oc2ccc3cc[nH]c3c2)nnc1[C@@H](C)NS(=O)(=O)c1c(Cl)cccc1Cl` [Compound 342], for which the inhibition at 10 µM worked out at 53.6%.

`CCn1c(Oc2ccc3cc[nH]c3c2)nnc1[C@@H](C)NS(=O)(=O)c1ccc(C(C)=O)cc1` [Compound 327]: the inhibition at 10 µM is 92.3%.

With `CCn1c(Oc2ccc3cc[nH]c3c2)nnc1[C@@H](C)NS(=O)(=O)c1ccc(C(C)(C)C)cc1` [Compound 330], the inhibition at 10 µM turned out to be 81.6%.

Turning to `CCn1c(Oc2ccc(F)cc2)nnc1[C@@H](C)NS(=O)(=O)c1ccc(Cl)cc1Cl` [Compound 226], the inhibition at 10 µM came to 80.4%.

For the compound `CCn1c(Oc2ccc(F)cc2)nnc1[C@@H](C)NS(=O)(=O)c1c(F)c(F)c(F)c(F)c1F` [Compound 181], the inhibition at 10 µM amounted to 50.4%.

`CCn1c(Oc2ccc(F)cc2)nnc1[C@@H](C)NS(=O)(=O)c1cc(Cl)ccc1F` [Compound 274]: the inhibition at 10 µM came out at 53.5%.

For `CCn1c(Oc2ccc3cc[nH]c3c2)nnc1[C@@H](C)NS(=O)(=O)c1cc(F)ccc1C` [Compound 390], the inhibition at 10 µM was 65.9%.

As for `CCn1c(Oc2ccc(F)cc2)nnc1[C@@H](C)NS(=O)(=O)c1ccc(C(C)=O)cc1` [Compound 154], the inhibition at 10 µM was 92.3%.

In the case of `CCn1c(Oc2ccc(F)cc2)nnc1[C@@H](C)NS(=O)(=O)c1cccc(C)c1` [Compound 192], the inhibition at 10 µM is 95.2%.

Turning to `CCn1c(Oc2ccc(F)cc2)nnc1[C@@H](C)NS(=O)(=O)c1cc(C)cc(C)c1` [Compound 262], the inhibition at 10 µM was 79.6%.

With `CCn1c(Oc2ccc(F)cc2)nnc1[C@@H](C)NS(=O)(=O)c1cc(F)c(F)cc1Cl` [Compound 240], the inhibition at 10 µM came out at 82.5%.

As for `CCn1c(Oc2ccc(F)cc2)nnc1[C@@H](C)NS(=O)(=O)c1ccc(Br)cc1C` [Compound 235], the inhibition at 10 µM turned out to be 82.9%.

With `CCn1c(Oc2ccc(F)cc2)nnc1[C@@H](C)NS(=O)(=O)c1ccc(S(C)(=O)=O)cc1` [Compound 177], the inhibition at 10 µM came to 55.3%.
